According to PubChem BioAssay (NCI):
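Results reflect a 48-hour exposure of cells in 96-well plates to compound at five concentrations. TGI denotes the concentration required for complete inhibition of growth.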

Tests used:
Assay in all cases: growth of human tumour cells (NCI), 48 h
786-0 renal = tested on: 786-0 renal
A498 renal = tested on: A498 renal
A549 NSCLC = tested on: A549 NSCLC
ACHN renal = tested on: ACHN renal
BT-549 breast = tested on: BT-549 breast
CAKI-1 renal = tested on: CAKI-1 renal
CCRF-CEM leukemia = tested on: CCRF-CEM leukemia
COLO 205 colon = tested on: COLO 205 colon
DU-145 prostate = tested on: DU-145 prostate
EKVX NSCLC = tested on: EKVX NSCLC
HCC-2998 colon = tested on: HCC-2998 colon
HCT-116 colon = tested on: HCT-116 colon
HCT-15 colon = tested on: HCT-15 colon
HL-60(TB) leukemia = tested on: HL-60(TB) leukemia
HOP-62 NSCLC = tested on: HOP-62 NSCLC
HOP-92 NSCLC = tested on: HOP-92 NSCLC
HS 578T breast = tested on: HS 578T breast
HT29 colon = tested on: HT29 colon
IGROV1 ovarian = tested on: IGROV1 ovarian
K-562 leukemia = tested on: K-562 leukemia
KM12 colon = tested on: KM12 colon
LOX IMVI melanoma = tested on: LOX IMVI melanoma
M14 melanoma = tested on: M14 melanoma
MALME-3M melanoma = tested on: MALME-3M melanoma
MCF7 breast = tested on: MCF7 breast
MDA-MB-231 breast = tested on: MDA-MB-231 breast
MDA-MB-435 = tested on: MDA-MB-435
MDA-N = tested on: MDA-N
MOLT-4 leukemia = tested on: MOLT-4 leukemia
NCI-H226 lung = tested on: NCI-H226 lung
NCI-H23 lung = tested on: NCI-H23 lung
NCI-H460 lung = tested on: NCI-H460 lung
NCI-H522 lung = tested on: NCI-H522 lung
NCI/ADR-RES ovarian = tested on: NCI/ADR-RES ovarian
OVCAR-3 ovarian = tested on: OVCAR-3 ovarian
OVCAR-4 ovarian = tested on: OVCAR-4 ovarian
OVCAR-5 ovarian = tested on: OVCAR-5 ovarian
OVCAR-8 ovarian = tested on: OVCAR-8 ovarian
RPMI-8226 leukemia = tested on: RPMI-8226 leukemia
SF-268 CNS = tested on: SF-268 CNS
SF-295 CNS = tested on: SF-295 CNS
SF-539 CNS = tested on: SF-539 CNS
SK-MEL-28 melanoma = tested on: SK-MEL-28 melanoma
SK-MEL-5 melanoma = tested on: SK-MEL-5 melanoma
SK-OV-3 ovarian = tested on: SK-OV-3 ovarian
SN12C renal = tested on: SN12C renal
SNB-19 CNS = tested on: SNB-19 CNS
SNB-75 CNS = tested on: SNB-75 CNS
SW-620 colon = tested on: SW-620 colon
T-47D breast = tested on: T-47D breast
TK-10 renal = tested on: TK-10 renal
UACC-257 melanoma = tested on: UACC-257 melanoma
UACC-62 melanoma = tested on: UACC-62 melanoma
PC-3 prostate = tested on: PC-3 prostate
UO-31 renal = tested on: UO-31 renal

C[C@H]1CC[C@@H]2[C@@H](C)C[C@H]3[C@@H]4C(C)(C)OC(=O)[C@]4(C)C(=O)[C@@]23C1=O
TGI (786-0 renal): > 100 µM
TGI (A498 renal): > 100 µM
TGI (A549 NSCLC): > 100 µM
TGI (ACHN renal): > 100 µM
TGI (BT-549 breast): > 100 µM
TGI (CAKI-1 renal): > 100 µM
TGI (CCRF-CEM leukemia): > 100 µM
TGI (COLO 205 colon): > 100 µM
TGI (DU-145 prostate): > 100 µM
TGI (EKVX NSCLC): > 100 µM
TGI (HCC-2998 colon): > 100 µM
TGI (HCT-116 colon): > 100 µM
TGI (HCT-15 colon): > 100 µM
TGI (HL-60(TB) leukemia): > 100 µM
TGI (HOP-62 NSCLC): > 100 µM
TGI (HOP-92 NSCLC): > 100 µM
TGI (HS 578T breast): > 100 µM
TGI (HT29 colon): > 100 µM
TGI (IGROV1 ovarian): > 100 µM
TGI (K-562 leukemia): > 100 µM
TGI (KM12 colon): > 100 µM
TGI (LOX IMVI melanoma): > 100 µM
TGI (M14 melanoma): > 100 µM
TGI (MALME-3M melanoma): > 100 µM
TGI (MCF7 breast): > 100 µM
TGI (MDA-MB-231 breast): > 100 µM
TGI (MDA-MB-435): > 100 µM
TGI (MDA-N): > 100 µM
TGI (MOLT-4 leukemia): > 100 µM
TGI (NCI-H226 lung): > 100 µM
TGI (NCI-H23 lung): > 100 µM
TGI (NCI-H460 lung): > 100 µM
TGI (NCI-H522 lung): > 100 µM
TGI (NCI/ADR-RES ovarian): > 100 µM
TGI (OVCAR-3 ovarian): > 100 µM
TGI (OVCAR-4 ovarian): > 100 µM
TGI (OVCAR-5 ovarian): > 100 µM
TGI (OVCAR-8 ovarian): > 100 µM
TGI (RPMI-8226 leukemia): > 100 µM
TGI (SF-268 CNS): > 100 µM
TGI (SF-295 CNS): > 100 µM
TGI (SF-539 CNS): > 100 µM
TGI (SK-MEL-28 melanoma): > 100 µM
TGI (SK-MEL-5 melanoma): > 100 µM
TGI (SK-OV-3 ovarian): > 100 µM
TGI (SN12C renal): > 100 µM
TGI (SNB-19 CNS): > 100 µM
TGI (SNB-75 CNS): > 100 µM
TGI (SW-620 colon): > 100 µM
TGI (T-47D breast): 68.1 µM
TGI (TK-10 renal): > 100 µM
TGI (UACC-257 melanoma): > 100 µM
TGI (UACC-62 melanoma): > 100 µM

CC(C)OP(=O)(c1ccccc1)c1ccc2c(c1)OCCOCCOCCOCCO2 (stereo unspecified)
TGI (786-0 renal): > 100 µM
TGI (A498 renal): > 100 µM
TGI (A549 NSCLC): > 100 µM
TGI (ACHN renal): > 100 µM
TGI (BT-549 breast): > 100 µM
TGI (CCRF-CEM leukemia): > 100 µM
TGI (COLO 205 colon): > 100 µM
TGI (DU-145 prostate): > 100 µM
TGI (EKVX NSCLC): > 100 µM
TGI (HCC-2998 colon): > 100 µM
TGI (HCT-116 colon): > 100 µM
TGI (HCT-15 colon): > 100 µM
TGI (HL-60(TB) leukemia): > 100 µM
TGI (HOP-62 NSCLC): > 100 µM
TGI (HS 578T breast): > 100 µM
TGI (HT29 colon): > 100 µM
TGI (IGROV1 ovarian): > 100 µM
TGI (K-562 leukemia): > 100 µM
TGI (KM12 colon): > 100 µM
TGI (LOX IMVI melanoma): > 100 µM
TGI (MALME-3M melanoma): > 100 µM
TGI (MCF7 breast): > 100 µM
TGI (MDA-MB-231 breast): > 100 µM
TGI (MDA-MB-435): > 100 µM
TGI (MDA-N): > 100 µM
TGI (MOLT-4 leukemia): > 100 µM
TGI (NCI-H226 lung): > 100 µM
TGI (NCI-H23 lung): > 100 µM
TGI (NCI-H460 lung): > 100 µM
TGI (NCI-H522 lung): > 100 µM
TGI (OVCAR-8 ovarian): > 100 µM
TGI (PC-3 prostate): > 100 µM
TGI (RPMI-8226 leukemia): > 100 µM
TGI (SF-268 CNS): > 100 µM
TGI (SF-295 CNS): > 100 µM
TGI (SF-539 CNS): > 100 µM
TGI (SK-MEL-28 melanoma): > 100 µM
TGI (SK-MEL-5 melanoma): > 100 µM
TGI (SK-OV-3 ovarian): > 100 µM
TGI (SN12C renal): > 100 µM
TGI (SNB-19 CNS): > 100 µM
TGI (SNB-75 CNS): > 100 µM
TGI (SW-620 colon): > 100 µM
TGI (T-47D breast): > 100 µM
TGI (TK-10 renal): > 100 µM
TGI (UACC-257 melanoma): > 100 µM
TGI (UACC-62 melanoma): > 100 µM
TGI (UO-31 renal): > 100 µM
